The term IC50 denotes the concentration that gives 50% inhibition. High values mean weaker potency in that assay, low ones greater potency in that assay.

Sequence of GST tagged IRAK-4 (Q9NWZ3 whole entry): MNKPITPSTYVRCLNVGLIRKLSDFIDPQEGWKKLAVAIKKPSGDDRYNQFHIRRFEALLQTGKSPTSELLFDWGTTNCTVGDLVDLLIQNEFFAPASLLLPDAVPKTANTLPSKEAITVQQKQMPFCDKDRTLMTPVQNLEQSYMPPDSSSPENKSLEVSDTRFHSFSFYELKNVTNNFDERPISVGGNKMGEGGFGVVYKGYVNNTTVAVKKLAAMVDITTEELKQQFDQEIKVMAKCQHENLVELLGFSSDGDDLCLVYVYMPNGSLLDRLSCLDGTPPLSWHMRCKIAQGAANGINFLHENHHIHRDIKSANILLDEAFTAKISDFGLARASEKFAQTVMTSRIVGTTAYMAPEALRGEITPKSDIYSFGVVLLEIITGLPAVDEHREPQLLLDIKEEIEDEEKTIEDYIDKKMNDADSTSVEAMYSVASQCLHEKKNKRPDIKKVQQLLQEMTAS

The first test has as its target GST tagged IRAK-4 (Homo sapiens (Human), UniProt Q9NWZ3). In words: IRAK-4 Kinase Assay (IMAP fluorescence polarization). The format is biochemical. As to conditions: 100 μM ATP, 30 minutes at 25° C. Put shortly:
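Activity was read by IMAP fluorescence polarization, where phosphopeptide binding to M(III) nanoparticles raises FP. The 30-minute, 25° C reaction used 100 μM ATP, 100 nM RP7030 substrate and 0.5 nM GST-IRAK-4 in pH 7.2 Tris buffer with MgCl2, DTT and Tween 20.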
A general note: In fluorescence polarisation assays a small probe gives low polarisation when free and higher when bound to something large.
`Cc1ccc(-n2nc(C3CCN(C(C)C)CC3)cc2NC(=O)c2cnn3cccnc23)nc1` [Example 270, N-{3-[1-(1-methylethyl)piperidin-4-yl]-1-(5-methylpyridin-2-yl)-1H-pyrazol-5-yl}pyrazolo[1,5-a]pyrimidine-3-carboxamide] gave an IC50 of less than 0.1 µM.

The compound `Cc1ccc(-n2nc(C3CCN(C4CCC(C(F)(F)F)CC4)CC3)cc2NC(=O)c2cnn3cccnc23)nc1` (centres unmarked) [Example 271, N-[1-(5-methylpyridin-2-yl)-3-{1-[4-(trifluoromethyl)cyclohexyl]piperidin-4-yl}-1H-pyrazol-5-yl]pyrazolo[1,5-a]pyrimidine-3-carboxamide] gave a concentration for half-maximal inhibition (IC50) of less than 0.1 µM.

The compound `Cc1ccc(-n2nc(C3CCN(C4CCC(C)C4)CC3)cc2NC(=O)c2cnn3cccnc23)nc1` (centres unmarked) [Example 272, N-{3-[1-(3-methylcyclopentyl)piperidin-4-yl]-1-(5-methylpyridin-2-yl)-1H-pyrazol-5-yl}pyrazolo[1,5-a]pyrimidine-3-carboxamide] returned an IC50 of less than 0.1 µM.

As to `Cc1ccc(-n2nc(C3CCN(C4CC[C@@H](C)C4)CC3)cc2NC(=O)c2cnn3cccnc23)nc1` (stereo partly drawn) [Example 273, N-[3-{1-[(3R)-3-methylcyclopentyl]piperidin-4-yl}-1-(5-methylpyridin-2-yl)-1H-pyrazol-5-yl]pyrazolo[1,5-a]pyrimidine-3-carboxamide], the IC50 was less than 0.1 µM.

In turn, `Cc1ccc(-n2nc(C3CCN(C4CCC4)CC3)cc2NC(=O)c2cnn3cccnc23)nc1` [Example 274, N-[3-(1-cyclobutylpiperidin-4-yl)-1-(5-methylpyridin-2-yl)-1H-pyrazol-5-yl]pyrazolo[1,5-a]pyrimidine-3-carboxamide] had an IC50 of less than 0.1 µM.

Take `Cc1ccc(-n2nc(C3CCN(C4CCN(C)CC4)CC3)cc2NC(=O)c2cnn3cccnc23)nc1` [Example 275, N-[3-(1′-methyl-1,4′-bipiperidin-4-yl)-1-(5-methylpyridin-2-yl)-1H-pyrazol-5-yl]pyrazolo[1,5-a]pyrimidine-3-carboxamide]: the IC50 was less than 0.1 µM.

`CCOC(=O)N1CCC(N2CCC(c3cc(NC(=O)c4cnn5cccnc45)n(-c4ccc(C)cn4)n3)CC2)CC1` [Example 276, ethyl 4-{1-(5-methylpyridin-2-yl)-5-[(pyrazolo[1,5-a]pyrimidin-3-ylcarbonyl)amino]-1H-pyrazol-3-yl}-1,4′-bipiperidine-1′-carboxylate]: the IC50 is less than 0.1 µM.

In turn, `Cc1ccc(-n2nc(C3CCN(C4CCCC(C)C4)CC3)cc2NC(=O)c2cnn3cccnc23)nc1` (centres unmarked) [Example 277, N-{3-[1-(3-methylcyclohexyl)piperidin-4-yl]-1-(5-methylpyridin-2-yl)-1H-pyrazol-5-yl}pyrazolo[1,5-a]pyrimidine-3-carboxamide] returned an IC50 of less than 0.1 µM.

The compound `CCN1CCC(N2CCC(c3cc(NC(=O)c4cnn5cccnc45)n(-c4ccc(C)cn4)n3)CC2)CC1` [Example 279, N-[3-(1′-ethyl-1,4′-bipiperidin-4-yl)-1-(5-methylpyridin-2-yl)-1H-pyrazol-5-yl]pyrazolo[1,5-a]pyrimidine-3-carboxamide] returned an IC50 of less than 0.1 µM.

The compound `CCCN1CCC(c2cc(NC(=O)c3cnn4cccnc34)n(-c3ccc(C)cn3)n2)CC1` [Example 280, N-[1-(5-methylpyridin-2-yl)-3-(1-propylpiperidin-4-yl)-1H-pyrazol-5-yl]pyrazolo[1,5-a]pyrimidine-3-carboxamide] yielded an IC50 of less than 0.1 µM.

`Cc1ccc(-n2nc(C3CCN(CC4CC4)CC3)cc2NC(=O)c2cnn3cccnc23)nc1` [Example 281, N-{3-[1-(cyclopropylmethyl)piperidin-4-yl]-1-(5-methylpyridin-2-yl)-1H-pyrazol-5-yl}pyrazolo[1,5-a]pyrimidine-3-carboxamide] showed an IC50 of less than 0.1 µM.

`Cc1ccc(-n2nc(C3CCN(C4Cc5ccccc5C4)CC3)cc2NC(=O)c2cnn3cccnc23)nc1` [Example 282, N-{3-[1-(2,3-dihydro-1H-inden-2-yl)piperidin-4-yl]-1-(5-methylpyridin-2-yl)-1H-pyrazol-5-yl}pyrazolo[1,5-a]pyrimidine-3-carboxamide] displayed an IC50 of less than 0.1 µM.

In turn, `Cc1ccc(-n2nc(C3CN(Cc4cn[nH]c4)C3)cc2NC(=O)c2cnn3cccnc23)cc1` [Example 305, N-{1-(4-methylphenyl)-3-[1-(1H-pyrazol-4-ylmethyl)azetidin-3-yl]-1H-pyrazol-5-yl}pyrazolo[1,5-a]pyrimidine-3-carboxamide] had an IC50 of less than 0.1 µM.

In the case of `Cc1ccc(-n2nc(C3CN(Cc4cncs4)C3)cc2NC(=O)c2cnn3cccnc23)cc1` [Example 312, N-{1-(4-methylphenyl)-3-[1-(1,3-thiazol-5-ylmethyl)azetidin-3-yl]-1H-pyrazol-5-yl}pyrazolo[1,5-a]pyrimidine-3-carboxamide], the IC50 was less than 0.1 µM.

`COc1ncccc1CN1CC(c2cc(NC(=O)c3cnn4cccnc34)n(-c3ccc(C)cc3)n2)C1` [Example 313, N-[3-{1-[(2-methoxypyridin-3-yl)methyl]azetidin-3-yl}-1-(4-methylphenyl)-1H-pyrazol-5-yl]pyrazolo[1,5-a]pyrimidine-3-carboxamide]: the IC50 was less than 0.1 µM.

Consider `Cc1ccc(-n2nc(C3CN(Cc4cccnc4)C3)cc2NC(=O)c2cnn3cccnc23)cc1` [Example 314, N-{1-(4-methylphenyl)-3-[1-(pyridin-3-ylmethyl)azetidin-3-yl]-1H-pyrazol-5-yl}pyrazolo[1,5-a]pyrimidine-3-carboxamide], for which the IC50 is less than 0.1 µM.

`COc1cccc(CN2CC(c3cc(NC(=O)c4cnn5cccnc45)n(-c4ccc(C)cc4)n3)C2)n1` [Example 315, N-[3-{1-[(6-methoxypyridin-2-yl)methyl]azetidin-3-yl}-1-(4-methylphenyl)-1H-pyrazol-5-yl]pyrazolo pyrimidine-3-carboxamide] returned a half-inhibitory concentration (IC50) of less than 0.1 µM.

The same test, now with this note: 100 μM ATP, 30 minutes at 25° C.; μM.
`Cc1ccc(-n2nc(C3CCCN(Cc4cncs4)C3)cc2NC(=O)c2cnn3cccnc23)cc1` (centres unmarked) [Example 284, N-{1-(4-methylphenyl)-3-[1-(1,3-thiazol-5-ylmethyl)piperidin-3-yl]-1H-pyrazol-5-yl}pyrazolo[1,5-a]pyrimidine-3-carboxamide] yielded an IC50 of less than 1 µM.

As to `Cc1ccc(-n2nc(C3CCCN(Cc4cscn4)C3)cc2NC(=O)c2cnn3cccnc23)cc1` (centres unmarked) [Example 288, N-{1-(4-methylphenyl)-3-[1-(1,3-thiazol-4-ylmethyl)piperidin-3-yl]-1H-pyrazol-5-yl}pyrazolo[1,5-a]pyrimidine-3-carboxamide], the IC50 was less than 1 µM.

`Cc1ccc(-n2nc(C3CCCN(CC4CC4)C3)cc2NC(=O)c2cnn3cccnc23)cc1` (centres unmarked) [Example 297, N-{3-[1-(cyclopropylmethyl)piperidin-3-yl]-1-(4-methylphenyl)-1H-pyrazol-5-yl}pyrazolo[1,5-a]pyrimidine-3-carboxamide] came in with an IC50 of less than 1 µM.

The compound `Cc1ccc(-n2nc(C3CCCN(Cc4nccs4)C3)cc2NC(=O)c2cnn3cccnc23)cc1` (centres unmarked) [Example 298, N-{1-(4-methylphenyl)-3-[1-(1,3-thiazol-2-ylmethyl)piperidin-3-yl]-1H-pyrazol-5-yl}pyrazolo[1,5-a]pyrimidine-3-carboxamide] showed an IC50 of less than 1 µM.

Take `Cc1ccc(-n2nc(C3CN(Cc4cnccn4)C3)cc2NC(=O)c2cnn3cccnc23)cc1` [Example 304, N-{1-(4-methylphenyl)-3-[1-(pyrazin-2-ylmethyl)azetidin-3-yl]-1H-pyrazol-5-yl}pyrazolo[1,5-a]pyrimidine-3-carboxamide]: the IC50 is less than 1 µM.

Compound `Cc1ccc(-n2nc(C3CN(Cc4ccn[nH]4)C3)cc2NC(=O)c2cnn3cccnc23)cc1` [Example 306, N-{1-(4-methylphenyl)-3-[1-(1H-pyrazol-5-ylmethyl)azetidin-3-yl]-1H-pyrazol-5-yl}pyrazolo[1,5-a]pyrimidine-3-carboxamide] yielded an IC50 of less than 1 µM.

`Cc1ccc(-n2nc(C3CN(Cc4nccs4)C3)cc2NC(=O)c2cnn3cccnc23)cc1` [Example 307, N-{1-(4-methylphenyl)-3-[1-(1,3-thiazol-2-ylmethyl)azetidin-3-yl]-1H-pyrazol-5-yl}pyrazolo[1,5-a]pyrimidine-3-carboxamide]: the IC50 is less than 1 µM.

With `Cc1ccc(-n2nc(C3CN(Cc4ccccn4)C3)cc2NC(=O)c2cnn3cccnc23)cc1` [Example 308, N-{1-(4-methylphenyl)-3-[1-(pyridin-2-ylmethyl)azetidin-3-yl]-1H-pyrazol-5-yl}pyrazolo[1,5-a]pyrimidine-3-carboxamide], the IC50 was less than 1 µM.

Take `Cc1ccc(-n2nc(C3CN(Cc4ccncc4)C3)cc2NC(=O)c2cnn3cccnc23)cc1` [Example 309, N-{1-(4-methylphenyl)-3-[1-(pyridin-4-ylmethyl)azetidin-3-yl]-1H-pyrazol-5-yl}pyrazolo[1,5-a]pyrimidine-3-carboxamide]: the IC50 is less than 1 µM.

Turning to `Cc1ccc(-n2nc(C3CN(Cc4cncnc4)C3)cc2NC(=O)c2cnn3cccnc23)cc1` [Example 310, N-{1-(4-methylphenyl)-3-[1-(pyrimidin-5-ylmethyl)azetidin-3-yl]-1H-pyrazol-5-yl}pyrazolo[1,5-a]pyrimidine-3-carboxamide], the IC50 is less than 1 µM.

`Cc1ccc(-n2nc(C3CN(Cc4cc(C)on4)C3)cc2NC(=O)c2cnn3cccnc23)cc1` [Example 311, N-[3-{1-[(5-methylisoxazol-3-yl)methyl]azetidin-3-yl]-1-(4-methylphenyl)-1H-pyrazol-5-yl}pyrazolo[1,5-a]pyrimidine-3-carboxamide]: the half-inhibitory concentration (IC50) was less than 1 µM.

In turn, `Cc1ccc(-n2nc(C3CN(Cc4ncco4)C3)cc2NC(=O)c2cnn3cccnc23)cc1` [Example 316, N-{1-(4-methylphenyl)-3-[1-(1,3-oxazol-2-ylmethyl)azetidin-3-yl]-1H-pyrazol-5-yl}pyrazolo[1,5-a]pyrimidine-3-carboxamide] yielded an IC50 of less than 1 µM.

The values above are taken from patent publication US9169260B2 (MERCK SHARP & DOHME CORP., priority 2011, dated 2015).
